Source: patent US11919932B2, “HMGN partial peptide and cancer therapy using the same” (The University of Tokyo, priority 2018, dated 2024)

Legend:
[1] = test system: Colon26 large intestine cancer cells; test: Colon26 tumor-bearing mice, HMGN peptide in combination with anti-PD-L1 antibody, tumor volume; assay type: in vivo, mouse; conditions: for anti-tumor effect, tumor volume 24 days after tumor implantation (FIG. 11) / anti-tumor effect compared with Pep1 (FIG. 11): same molar dose as 300 ng of Pep1; for anti-tumor effect, tumor volume 24 days after tumor implantation (FIG. 11): vs anti-PD-L1 antibody single administration group; for growth of Colon26 solid tumor, tumor volume 26 days after tumor cell implantation (FIG. 5, FIG. 6): peptide equimolar to Pep1 300 ng/mouse (two doses, common ratio 5, for Pep1ΔN2 and Pep1 mutant), vs anti-PD-L1 alone; for tumor growth (time-dependent change in tumor volume, FIG. 7): Pep1 60 and 300 ng/mouse, other peptides three equimolar doses, common ratio 5 (Pep1core 8 to 200 ng/mouse)
Description: (§1) Seven-week-old male BALB/c mice were used in groups of 8 mice, and Colon26 large intestine cancer cells were subcutaneously transplanted into the right flank at 2×10^5 cells/mouse.
(§2) An anti-mouse PD-L1 antibody (clone 10F.9G2) and an anti-mouse CD4 depleting antibody (clone GK1.5) were purchased from BioXcell.
(§3) The HMGN peptide was intraperitoneally administered at a dose described below four times in total at 9, 14, 17 and 20 days after tumor cell implantation. The anti-mouse PD-L1 antibody was intraperitoneally administered at 200 μg/mouse four times in total at 4, 8, 14 and 18 days after tumor cell implantation. The anti-mouse CD4 antibody was intraperitoneally administered at a dose of 200 μg/mouse twice in total at 5 and 9 days after tumor cell implantation. The long diameter and short diameter of the solid tumor were measured every 3 to 4 days, and tumor volume was calculated by the following calculation formula. Tumor volume (mm^3)=(Long diameter; mm)×(Short diameter; mm)^2×0.5236

[2] = test system: Colon26 large intestine cancer cells; test: Colon26 tumor-bearing mice, HMGN peptide single administration, tumor volume; assay type: in vivo, mouse; conditions: Pep1 alone; vs control group
Description: as §1, §3
A partial fragment (human HMGN1 NBD peptide 1; Pep1, SEQ ID NO: 3) of human HMGN1 (SEQ ID NO: 17) corresponding to mPep1 was prepared and administered to Colon26 tumor-bearing mice alone or in combination with an anti-PD-L1 antibody (200 μg/mouse), and the anti-tumor effect was investigated.

[3] = test system: Colon26 large intestine cancer cells; test: Colon26 tumor-bearing mice, HMGN peptide in combination with anti-CD4 antibody, tumor volume; assay type: in vivo; conditions: Pep1 800 ng/mouse + anti-CD4 antibody 200 μg/mouse
Description: as §1, §2, §3
The partial peptide of human HMGN1, Pep1 (800 ng/mouse), was administered to Colon26 tumor-bearing mice in combination with an anti-CD4 antibody (200 μg/mouse), and the anti-tumor effect was investigated.

[4] = + anti-PD-L1 antibody 200 μg/mouse

## Human HMGN3 NBD-peptide [PepN3]
[1]; + anti-PD-L1 antibody
  anti-tumor effect, tumor volume 24 days after tumor implantation (FIG. 11): no anti-tumor effect

## mouse HMGN1 NBD-peptide 2 (VQIKGKRGAKGKQADVADQQTTELPAENGETENQSPASEE; mouse HMGN1 NBD-peptide 2 (mPep2)) [region at the C-terminal side of mouse HMGN1 NBD]
[1]; doses of 30, 300 ng/mouse (mPep2 same molar number), + anti-PD-L1 antibody, vs control group
  tumor volume 24 days after Colon26 tumor cell implantation (FIG. 2): ineffective
[1]; mPep1 30 or 300 ng/mouse, mPep2 33 or 330 ng/mouse, i.p. four times, + anti-PD-L1 antibody 200 μg/mouse
  tumor growth (time-dependent change in tumor volume, FIG. 1): no combined effect

## HMGN5 NBD-peptide (GQGDMRQEPKRRSARLSAMLVPVTPEVKPKRTSSSRKMKTKSD; Human HMGN5 NBD-peptide (N5Pep)) [PepN5, partial region containing NBD of human HMGN5]
[1]; + anti-PD-L1 antibody
  anti-tumor effect compared with Pep1 (FIG. 11): at the same level as Pep1
  anti-tumor effect, tumor volume 24 days after tumor implantation (FIG. 11): significant anti-tumor effects

## Human HMGN2 NBD-peptide [PepN2]
[1]; + anti-PD-L1 antibody
  anti-tumor effect compared with Pep1 (FIG. 11): at the same level as Pep1
  anti-tumor effect, tumor volume 24 days after tumor implantation (FIG. 11): significant anti-tumor effects

## Human HMGN4 NBD-peptide [PepN4]
[1]; + anti-PD-L1 antibody
  anti-tumor effect compared with Pep1 (FIG. 11): at the same level as Pep1
  anti-tumor effect, tumor volume 24 days after tumor implantation (FIG. 11): significant anti-tumor effects

## Human HMGN1 NBD-peptide 1 Δ C1 (SSAEGAAKEEPKRRSARLSAKPPAKVEAKPKK; Human HMGN1 NBD-peptide 1 delta-C1 (Pep1 delta-C1)) [Pep1ΔC1, C-terminal 5 residues of Pep1 removed]
[1]; dose of 53 ng, + anti-PD-L1 antibody
  complete regression of solid tumors: 1 case
[1]; doses of 11 and 265 ng/mouse, + anti-PD-L1 antibody
  complete regression of solid tumors: 3 cases out of 8 cases
[1]; [4]
  growth of Colon26 solid tumor, tumor volume 26 days after tumor cell implantation (FIG. 5, FIG. 6): significantly suppressed

## Human HMGN1 NBD-peptide 1 Δ N3 (SARLSAKPPAKVEAKPKKAAAKD; Human HMGN1 NBD-peptide 1 delta-N3 (Pep1 delta-N3)) [Pep1ΔN3, N-terminal 14 residues of Pep1 removed]
[1]; [4]
  growth of Colon26 solid tumor, tumor volume 26 days after tumor cell implantation (FIG. 5, FIG. 6): ineffective

## Human HMGN1 NBD-peptide 1 core (EPKRRSARLSAKPPAKVEAKPKK; Human HMGN1 NBD-peptide1 core (Pep1core)) [10th to 32nd residues of Pep1]
[1]; [4]
  tumor growth (time-dependent change in tumor volume, FIG. 7): suppressed in a dose-dependent manner
[1]; doses of 40 and 200 ng/mouse, + anti-PD-L1 antibody
  tumor volume 27 days after implantation, difference from anti-PD-L1 antibody single administration group (FIG. 8): significant difference was observed

## Human HMGN1 peptide O (KEEPKRRSARLSAKPPAKVEAKPKKAAAKDKSSDKK; Human HMGN1 peptide O (PepO)) [known HMGN peptide of U.S. Pat. No. 8,227,417, reference compound]
[1]; 954 ng/mouse, + anti-PD-L1 antibody 200 μg/mouse
  complete regression of solid tumors: 3 mice
[1]; dose of 318 ng/mouse (equimolar to Pep1 300 ng/mouse), + anti-PD-L1 antibody 200 μg/mouse
  anti-tumor effect, tumor volume 24 days after tumor implantation (FIG. 9, FIG. 10): no anti-tumor effect
[1]; triple dose of 954 ng/mouse, + anti-PD-L1 antibody 200 μg/mouse
  tumor growth, tumor volume 24 days after tumor implantation (FIG. 9, FIG. 10): significantly suppressed tumor growth

## Human HMGN1 NBD-peptide 1 Δ N1 (AAKEEPKRRSARLSAKPPAKVEAKPKKAAAKD; Human HMGN1 NBD-peptide 1 delta-N1 (Pep1 delta-N1)) [Pep1ΔN1, N-terminal 5 residues of Pep1 removed]
[1]; doses of 53 and 267 ng/mouse, + anti-PD-L1 antibody 200 μg/mouse
  Colon26 solid tumor growth (FIG. 5, FIG. 6): significantly suppressed

## Human HMGN1 NBD-peptide 1 Δ C2 (SSAEGAAKEEPKRRSARLSAKPPAKVEA; Human HMGN1 NBD-peptide 1 delta-C2 (Pep1 delta-C2)) [Pep1ΔC2, C-terminal 9 residues of Pep1 removed]
[1]; [4]
  growth of Colon26 solid tumor, tumor volume 26 days after tumor cell implantation (FIG. 5, FIG. 6): ineffective

## Human HMGN1 NBD-peptide 1 (SSAEGAAKEEPKRRSARLSAKPPAKVEAKPKKAAAKD; Human HMGN1 NBD-peptide 1 (Pep1))
[2]
  growth of Colon26 solid tumor, tumor volume 23 days after tumor implantation (FIG. 3): significantly suppressed growth of Colon26 solid tumor in a dose-dependent manner
[1]; 3 ng/mouse and 30 ng/mouse, + anti-PD-L1 antibody
  anti-tumor effect (FIG. 3): effective
[1]; [4]
  tumor growth (time-dependent change in tumor volume, FIG. 7): synergistically suppressed tumor growth
  growth of Colon26 solid tumor, tumor volume 26 days after tumor cell implantation (FIG. 5, FIG. 6): significantly suppressed
[1]; Pep1 + anti-PD-L1 antibody 200 μg/mouse
  tumor growth (FIG. 3, FIG. 4): synergistically suppressed tumor growth
[1]; both + anti-PD-L1 antibody
  potency difference in the anti-tumor action between PepO and Pep1: ≥ 300 times
[3]
  Colon26 solid tumor growth (FIG. 12, FIG. 13; tumor volume 24 days after implantation): synergistically suppressed Colon26 solid tumor growth

## Human HMGN1 NBD-peptide 1 mutant (SAEGAAKEEPKDDSADLSAKPPAKVEAKPKKAAAKD; Human HMGN1 NBD-peptide 1 mutant (Pep1 mutant)) [R→D mutant of Pep1, N-terminal 1 residue removed]
[1]; [4]
  growth of Colon26 solid tumor, tumor volume 26 days after tumor cell implantation (FIG. 5, FIG. 6): same anti-tumor action as Pep1

## Human HMGN1 NBD-peptide 1 Δ N2 (EPKRRSARLSAKPPAKVEAKPKKAAAKD; Human HMGN1 NBD-peptide 1 delta-N2 (Pep1 delta-N2)) [Pep1ΔN2, N-terminal 9 residues of Pep1 removed]
[1]; [4]
  tumor growth (time-dependent change in tumor volume, FIG. 7): synergistic effect
  growth of Colon26 solid tumor, tumor volume 26 days after tumor cell implantation (FIG. 5, FIG. 6): similarly suppressed solid tumors
[1]; dose of 9.4 ng/mouse, + anti-PD-L1 antibody
  solid tumors completely regressed: 4 cases out of 8 cases

## Human HMGN1 NBD-peptide 1 Δ C (SSAEGAAKEEPKRRSARLSAKPPA; Human HMGN1 NBD-peptide 1 delta-C (Pep1 delta-C)) [Pep1 ΔC, C-terminal 13 residues of Pep1 removed]
[1]; [4]
  growth of Colon26 solid tumor, tumor volume 26 days after tumor cell implantation (FIG. 5, FIG. 6): anti-tumor effect of the peptide was lost
